Test results from patent US20250129430A1, “HIGH ATP-AFFINITY PROTEIN AS THERAPEUTIC TARGET FOR INTRACTABLE CANCER MOLECULAR SUBTYPES AND INHIBITOR THEREOF” (VeraVerse Co., Ltd., priority 2021, published 2025).

Experiments:
Experiment in all cases: Cell viability drug screen, 12-point dose-response AUC
Format in all cases: cell-based, human
AGS = AGS cells (non-SEM subtype); 72 hours
In short: (§1)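 Gastric cancer lines seeded 5×10^3 cells/well, dosed after 24 h with half-log 12-point compound dilutions (DMSO 0.5% control), then 72 h at 37 °C. Viability by luminescence, normalized to DMSO; AUC by trapezoidal method, averaged over repeats.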

Hs746T = Hs746T cells (SEM subtype); 72 hours
In short: (§2)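 Each cell line receives a twelve-point half-log titration of drug beginning 24 h after plating 5×10^3 cells per well. Following 72 h culture at 37 °C, luminescent signal is recorded and expressed versus vehicle. AUC is derived by the trapezoidal method.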

KATO3 = KATO3 cells; 72 hours
In short: as §2

MKN1 = MKN1 cells; 72 hours
In short: as §2

MKN28 = MKN28 cells; 72 hours
In short: as §2

MKN45 = MKN45 cells (non-SEM subtype); 72 hours
In short: as §1

MKN74 = MKN74 cells; 72 hours
In short: as §1

NCC19 = NCC19 cells; 72 hours
In short: as §2

NCC20 = NCC20 cells; 72 hours
In short: as §2

NCC24 = NCC24 cells; 72 hours
In short: as §2

NCC59 = NCC59 cells; 72 hours
In short: as §2

NCI_N87 = NCI_N87 cells; 72 hours
In short: as §2

OCUM1 = OCUM1 cells; 72 hours
In short: as §2

SK4 = SK4 cells (SEM subtype); 72 hours
In short: as §2

SNU16 = SNU16 cells; 72 hours
In short: as §2

SNU1750 = SNU1750 cells (SEM subtype); 72 hours
In short: as §2

SNU1967 = SNU1967 cells; 72 hours
In short: as §2

SNU1 = SNU1 cells; 72 hours
In short: as §2

SNU216 = SNU216 cells (non-SEM subtype); 72 hours
In short: as §1

SNU484 = SNU484 cells (SEM subtype); 72 hours
In short: as §2

SNU601 = SNU601 cells; 72 hours
In short: as §2

SNU620 = SNU620 cells; 72 hours
In short: as §2

SNU638 = SNU638 cells; 72 hours
In short: as §2

SNU668 = SNU668 cells (SEM subtype); 72 hours
In short: as §2

SNU719 = SNU719 cells; 72 hours
In short: as §1

YCC11 = YCC11 cells (SEM subtype); 72 hours
In short: as §2

YCC2 = YCC2 cells; 72 hours
In short: as §2

YCC3 = YCC3 cells; 72 hours
In short: as §2

FU97 = system: FU97; design: Average Area Under the Viability Curve (AUC), AUC norm value: scale not given here; details: FU97 cells; 72 hours
In short: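 Trapezoidal AUC of a 12-point, DMSO-normalized dose-response curve. Luminescent viability was measured after 72 h of exposure at 37° C to half-log serial dilutions (0.5% DMSO control), dosed 24 h after plating FU97 cells at 5×10^3 per well.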

Structure (SMILES) | Average Area Under the Viability Curve (AUC), AUC norm value (AGS) | Average Area Under the Viability Curve (AUC), AUC norm value (Hs746T) | Average Area Under the Viability Curve (AUC), AUC norm value (KATO3) | Average Area Under the Viability Curve (AUC), AUC norm value (MKN1) | Average Area Under the Viability Curve (AUC), AUC norm value (MKN28) | Average Area Under the Viability Curve (AUC), AUC norm value (MKN45) | Average Area Under the Viability Curve (AUC), AUC norm value (MKN74) | Average Area Under the Viability Curve (AUC), AUC norm value (NCC19) | Average Area Under the Viability Curve (AUC), AUC norm value (NCC20) | Average Area Under the Viability Curve (AUC), AUC norm value (NCC24) | Average Area Under the Viability Curve (AUC), AUC norm value (NCC59) | Average Area Under the Viability Curve (AUC), AUC norm value (NCI_N87) | Average Area Under the Viability Curve (AUC), AUC norm value (OCUM1) | Average Area Under the Viability Curve (AUC), AUC norm value (SK4) | Average Area Under the Viability Curve (AUC), AUC norm value (SNU16) | Average Area Under the Viability Curve (AUC), AUC norm value (SNU1750) | Average Area Under the Viability Curve (AUC), AUC norm value (SNU1967) | Average Area Under the Viability Curve (AUC), AUC norm value (SNU1) | Average Area Under the Viability Curve (AUC), AUC norm value (SNU216) | Average Area Under the Viability Curve (AUC), AUC norm value (SNU484) | further results
CC(C)C[C@H](NC(=O)[C@H](CCc1ccccc1)NC(=O)CN1CCOCC1)C(=O)N[C@@H](Cc1ccccc1)C(=O)N[C@@H](CC(C)C)C(=O)[C@@]1(C)CO1 [Carfilzomib (PR-171), Carfilzomib] | −0.131 | −1.399 | 0.1004 | 0.1771 | −0.7065 | 0.5553 | −0.3162 | 1.562 | −2.002 | −0.8995 | 0.8592 | 0.5098 | 1.245 | −0.2415 | −1.3183 | −0.9787 | −0.5586 | 0.1391 | 0 | −0.7602 | Average Area Under the Viability Curve (AUC), AUC norm value (SNU601): 1.489; Average Area Under the Viability Curve (AUC), AUC norm value (SNU620): −0.4242; Average Area Under the Viability Curve (AUC), AUC norm value (SNU638): 0.1464; Average Area Under the Viability Curve (AUC), AUC norm value (SNU668): 1.899; Average Area Under the Viability Curve (AUC), AUC norm value (SNU719): 0.5178; Average Area Under the Viability Curve (AUC), AUC norm value (YCC11): −0.7607; Average Area Under the Viability Curve (AUC), AUC norm value (YCC2): 0.8534; Average Area Under the Viability Curve (AUC), AUC norm value (YCC3): 1.747; Average Area Under the Viability Curve (AUC), AUC norm value (FU97): −0.1687
C/C=C(\C)C(=O)N[C@@H](c1ccccc1)[C@@H](O)C(=O)O[C@H]1C[C@@]2(O)[C@@H](OC(=O)c3ccccc3)[C@@H]3[C@]4(OC(C)=O)CO[C@@H]4C[C@H](O)[C@@]3(C)C(=O)[C@H](OC(C)=O)C(=C1C)C2(C)C [Cephalomannine] | −2.055 | 0.449 | 4.179 | −1.486 | −1.697 | 0 | 0.3528 | 1.7094 | −0.5011 | −0.7716 | 2.734 | −1.26 | 1.3887 | −1.144 | −1.737 | 1.009 | 0.6525 | −2.056 | 1.8612 | −0.7051 | Average Area Under the Viability Curve (AUC), AUC norm value (SNU601): 0.2225; Average Area Under the Viability Curve (AUC), AUC norm value (SNU620): −2.403; Average Area Under the Viability Curve (AUC), AUC norm value (SNU638): −0.03958; Average Area Under the Viability Curve (AUC), AUC norm value (SNU668): −0.1911; Average Area Under the Viability Curve (AUC), AUC norm value (SNU719): 4.893; Average Area Under the Viability Curve (AUC), AUC norm value (YCC11): −1.013; Average Area Under the Viability Curve (AUC), AUC norm value (YCC2): 0.3838; Average Area Under the Viability Curve (AUC), AUC norm value (YCC3): 2.809; Average Area Under the Viability Curve (AUC), AUC norm value (FU97): 0.4107
